In the OligoGym collection one finds target mRNA inhibition data, which are given here for 92 sequences.

Several values for one entry are separate records, joined by “and”; a condition that tells them apart may be missing. Equal entries are not always repeated. After the bases stand the sugars from the 5' end (letter, count) and the backbone: PS all phosphorothioate, else s phosphorothioate and o phosphodiester by linkage. Methylation of C is not given here. e = 2'-O-(2-methoxyethyl) (MOE); k = constrained ethyl (cEt); d = 2'-deoxy (DNA)

The first data set deals with IRF4. Particulars: ASO, H929, 0.04 µM.
In the case of “GGAAGTTTACACTGGA (sugars e1 k2 d9 k2 e2, PS)”, the target mRNA inhibition was 38% and 36%.

The data set is the same for the next values; noted with them: ASO, KMS11, 0.2 µM.
Turning to “GGAAGTTTACACTGGA (sugars e1 k2 d9 k2 e2, PS)”, the target mRNA inhibition is 75% and 80%.

Still in this data set, the particulars now being: ASO, MM.1R, 0.074 µM.
In the case of “GGAAGTTTACACTGGA (sugars kkdddddddddekeke, PS)”, the target mRNA inhibition came to 4%. Still for that read-out and setting: next, “GGAAGTTTACACTGGA (sugars e1 k2 d9 k2 e2, PS)”: 13%.

Staying with this data set, now noted: ASO, MM.1R, 0.222 µM.
Regarding “GGAAGTTTACACTGGA (sugars kkdddddddddekeke, PS)”, the target mRNA inhibition stood at 15%.

For “GGAAGTTTACACTGGA (sugars e1 k2 d9 k2 e2, PS)”, the target mRNA inhibition came to 35%.

The data set is the same for the next values; noted with them: ASO, MM.1R, 0.666 µM.
“GGAAGTTTACACTGGA (sugars kkdddddddddekeke, PS)”: the target mRNA inhibition amounted to 40%. In the case of “GGAAGTTTACACTGGA (sugars e1 k2 d9 k2 e2, PS)”, the target mRNA inhibition amounted to 66%.

The same data set, now with this note: ASO, MM.1R, 1 µM.
In the case of ACATTAAAGGGTAAGC (sugars k3 d10 k3, PS), the target mRNA inhibition was -23%.

“GGAAGTTTACACTGGA (sugars kkdddddddddekeke, PS)”: the target mRNA inhibition came to 64%. Take AAGTCTACAGCCCCAG (sugars k3 d10 k3, PS): the target mRNA inhibition was -5%. With GCATAGGCATCCTTCC (sugars k3 d10 k3, PS), the target mRNA inhibition was 8%. Turning to “GGAAGTTTACACTGGA (sugars e1 k2 d9 k2 e2, PS)”, the target mRNA inhibition was determined as 55%.

As to CCACAGTGAAGTCGGG (sugars k3 d10 k3, PS), the target mRNA inhibition turned out to be 6%. Consider ACAAAAACTTGGGTCA (sugars k3 d10 k3, PS), for which the target mRNA inhibition is -13%. On to “ATTATATACTGGTTGG (sugars kdddddddddkekeke, PS)”, for which the target mRNA inhibition is 27%.

As to AAGGAACAAGTGTATC (sugars k3 d10 k3, PS), the target mRNA inhibition amounted to 13%. As to “AATGTGTATTACTCTT (sugars kkddddddddddkeke, PS)”, the target mRNA inhibition was 8% and 22%. Take AAAGAAACGAGTTGAC (sugars k3 d10 k3, PS): the target mRNA inhibition came out at 14%. Turning to “GGAAGTTTACACTGGA (sugars kkdddddddddkdkdk, PS)”, the target mRNA inhibition turned out to be 24%.

Staying with this data set, now noted: ASO, MM.1R, 2 µM.
Turning to “GGAAGTTTACACTGGA (sugars kkdddddddddekeke, PS)”, the target mRNA inhibition stood at 64%.

In the case of “GGAAGTTTACACTGGA (sugars e1 k2 d9 k2 e2, PS)”, the target mRNA inhibition worked out at 87%.

The data set is the same for the next values; noted with them: ASO, SK-MEL-28, 4 µM.
CTCTAGTCAGTGTCAA (sugars k3 d10 k3, PS): the target mRNA inhibition worked out at 59%. Consider CAACCATTTTCACAAG (sugars k3 d10 k3, PS), for which the target mRNA inhibition was determined as 17%. Still for that read-out and setting: next, CTGGAGAGAACTCATG (sugars k3 d10 k3, PS): 38%. Take AGCAAGTCGGTCCACA (sugars k3 d10 k3, PS): the target mRNA inhibition was 54%. For the sequence CTTCAACAGCACTGTC (sugars k3 d10 k3, PS), the target mRNA inhibition is 56%. For the sequence AGATGTAAAGATAGGA (sugars k3 d10 k3, PS), the target mRNA inhibition is 54%. In the case of TCTATGGGATTATATA (sugars k3 d10 k3, PS), the target mRNA inhibition stood at 26%. With GCTCATTTCACTGTAG (sugars k3 d10 k3, PS), the target mRNA inhibition is 64%. With TTACATCTTACTTCCC (sugars k3 d10 k3, PS), the target mRNA inhibition was determined as 42%. Same read-out and setting: next, AACCGCTGAACTGAAA (sugars k3 d10 k3, PS): 13%; AATCATGATATTAGAG (sugars k3 d10 k3, PS): 31%. Consider CTCCACAGCAAGGCCT (sugars k3 d10 k3, PS), for which the target mRNA inhibition came out at 51%.

With CAAGATCGAGCGGTGA (sugars k3 d10 k3, PS), the target mRNA inhibition was 38%.

For the sequence TAAAGGAGTGCAGGAG (sugars k3 d10 k3, PS), the target mRNA inhibition was -7%. Consider CACTAATACCTACCTG (sugars k3 d10 k3, PS), for which the target mRNA inhibition was 6%. With GCACGAGGAAGCATAG (sugars k3 d10 k3, PS), the target mRNA inhibition came out at 58%.

Consider ATAATGTTTCAGTGCT (sugars k3 d10 k3, PS), for which the target mRNA inhibition is 76%.

On to CGGACGAACGCGCAAA (sugars k3 d10 k3, PS), for which the target mRNA inhibition is 39%.

Consider ACTGCTGTGTGTCAAA (sugars k4 d8 k4, PS), for which the target mRNA inhibition was determined as 19%. Turning to CCTGGCGGAGCATCAA (sugars k3 d10 k3, PS), the target mRNA inhibition worked out at 42%. Consider TAGCATCAGAGCTAGA (sugars k3 d10 k3, PS), for which the target mRNA inhibition came out at 49%. As for TCAAGTAAAGTGATCA (sugars k3 d10 k3, PS), the target mRNA inhibition came to 48%. In the case of CTGGCACCAAAAGTAC (sugars k3 d10 k3, PS), the target mRNA inhibition is 18%.

Regarding GCTTGAGGTTTTCCTA (sugars k3 d10 k3, PS), the target mRNA inhibition came out at 77%. TCTACAAGGTCTGAGT (sugars k3 d10 k3, PS): the target mRNA inhibition stood at 57%. For CCTCCATTCTAACAGA (sugars k4 d8 k4, PS), the target mRNA inhibition was -22%. As to CAGATAGTTAAGTACT (sugars k3 d10 k3, PS), the target mRNA inhibition worked out at 44%. The same measure, in the same setting: the value for GTAGGACAGACAAAAA (sugars k3 d10 k3, PS) was 23%; that for ATTTATACTGTCTGGT (sugars k3 d10 k3, PS) was 49%; that for ACTGTAAGGGCTGCTC (sugars k3 d10 k3, PS) was 69%. Take TGTAACAGGCTATCAG (sugars k3 d10 k3, PS): the target mRNA inhibition came out at 31%. With TAAAAGGTTCCTGTCA (sugars k3 d10 k3, PS), the target mRNA inhibition stood at 6%. With TCACTAAGCTTGATAA (sugars k3 d10 k3, PS), the target mRNA inhibition came out at 37%. On to GGACACTTTTAGAGAG (sugars k3 d10 k3, PS), for which the target mRNA inhibition worked out at 62%. Consider TACAGGCACGGCTTCA (sugars k3 d10 k3, PS), for which the target mRNA inhibition came out at 58%. Consider AAGACTATTAGATAAG (sugars k3 d10 k3, PS), for which the target mRNA inhibition is 22%.

For the next data set, the target named is MALAT1. The note with it: ASO, A431, 0.005 µM.
With TTACACCTCAGTACGA (sugars k3 d10 k3, PS), the target mRNA inhibition came out at 15%. For the sequence CTTAGTTGGCATCAAG (sugars k3 d10 k3, PS), the target mRNA inhibition was 31%. On to TTACACCAGTCCTTTT (sugars k3 d10 k3, PS), for which the target mRNA inhibition came to 37%. Turning to TGCATCGAGGTGAGGG (sugars k3 d10 k3, PS), the target mRNA inhibition was 21%.

Take CTGATAACGAAGAGAT (sugars k3 d10 k3, PS): the target mRNA inhibition is -3%. For the sequence TGAGAACTGCTCTAGT (sugars k3 d10 k3, PS), the target mRNA inhibition stood at 35%. On the same count and under the same terms, next, GTTGATATTTAAGAAC (sugars k3 d10 k3, PS): -15%. Still for that read-out and setting: next, TTACTTTCCATTACGC (sugars k3 d10 k3, PS): 16%; CAGGATCATTAAGCCA (sugars k3 d10 k3, PS): 42%; TGCCTACCACTCTAAG (sugars k3 d10 k3, PS): -10%. The same measure, in the same setting: the value for AGAGGGCCTCTATTGC (sugars k3 d10 k3, PS) was 33%; that for TCGGTGCCTTTAGTGA (sugars k3 d10 k3, PS) was 29%; that for TCACCGGAATTCGATC (sugars k3 d10 k3, PS) was -263%. As for AACATTGGCACACAGC (sugars k3 d10 k3, PS), the target mRNA inhibition was determined as 54%. For TATTTAGAGGGCCTCT (sugars k3 d10 k3, PS), the target mRNA inhibition is 34%.

As to AGGCGAGCTGAGGCTT (sugars k3 d10 k3, PS), the target mRNA inhibition was 19%.

In the case of CACCGGAATTCGATCA (sugars k3 d10 k3, PS), the target mRNA inhibition was 20%. As to CTTGTCTTAGCTTGTT (sugars k3 d10 k3, PS), the target mRNA inhibition was 71% and 61%.

Regarding TGACCCTACTGAAGAG (sugars k3 d10 k3, PS), the target mRNA inhibition is 21%. As for CAATATCTTAGTAACC (sugars k3 d10 k3, PS), the target mRNA inhibition is 29%.

Regarding AGCGAATGGCTTTGTC (sugars k3 d10 k3, PS), the target mRNA inhibition was 5%. On the same count and under the same terms, the value for TTGACAAGCAATTAAC (sugars k3 d10 k3, PS) was 7%; that for ATTCAACTGGAAGCTC (sugars k3 d10 k3, PS) was 17%.

For CTATCTTCTATACTTC (sugars k3 d10 k3, PS), the target mRNA inhibition amounted to 24%.

With GTTTCCTAGCTTGTCT (sugars k3 d10 k3, PS), the target mRNA inhibition was 57%. With GCTAAGATGCTAGCTT (sugars k3 d10 k3, PS), the target mRNA inhibition is 10%. As for GCTGAACTATCACAAT (sugars k3 d10 k3, PS), the target mRNA inhibition was 27%. Consider TAAGGACAGCTAAGAT (sugars k3 d10 k3, PS), for which the target mRNA inhibition is 24%. As for CTAAATCATTGGGAGT (sugars k3 d10 k3, PS), the target mRNA inhibition came out at 48%. Regarding AGTTTACCACCTTTTG (sugars k3 d10 k3, PS), the target mRNA inhibition stood at 23%.

As to GAAGGATGAAATGCCT (sugars k3 d10 k3, PS), the target mRNA inhibition is 7%. On the same count and under the same terms, next, CCACTTACTGGTTTAA (sugars k3 d10 k3, PS): 33%; ATGGACATTGCCTCTT (sugars k3 d10 k3, PS): 37%; TCCTCCGTGTGGTTGC (sugars k3 d10 k3, PS): 18%. As for CTGGTACACCCAGTGG (sugars k3 d10 k3, PS), the target mRNA inhibition stood at 4%.

As to TGCCCAAATTAATGCA (sugars k3 d10 k3, PS), the target mRNA inhibition worked out at 29%. Take GAAGTGTTTACACTGC (sugars k3 d10 k3, PS): the target mRNA inhibition stood at 11%. For CCCAAGATTGCCCCAA (sugars k3 d10 k3, PS), the target mRNA inhibition is -7%. With AGTATCAAATTATGAC (sugars k3 d10 k3, PS), the target mRNA inhibition was determined as 14%. Still for that read-out and setting: next, TACTATATTTAAGGCC (sugars k3 d10 k3, PS): 1%; AAAAAAGGCTTAGCGC (sugars k3 d10 k3, PS): 0%; TGAGATGGACATTGCC (sugars k3 d10 k3, PS): 74% and 92%.

As for GTAGTTGTATTAATCT (sugars k3 d10 k3, PS), the target mRNA inhibition was 68% and 65%. Regarding TCAAGTCAAGCTCCTG (sugars k3 d10 k3, PS), the target mRNA inhibition was found to be 3%.
